Measurements reported in patent US8563254B2, “Biomarkers of tumor pharmacodynamic response” (Novartis AG, priority 2009, dated 2013).

Key:
[1] = system: A375 tumor-bearing mice; assay: Hsp70 expression in A375 xenograft tumors; assay type: in vivo; details: single 50 mg/kg dose i.v.
Protocol: The in vivo study was carried out in strict accordance with Swiss law for animal protection and was approved by the Swiss Cantonal Veterinary Office of Basel-Stadt. GTL-16 (4×10^6) and A375 cells (5×10^6) were inoculated subcutaneously in the right flank in 200 μl Hanks' balanced salt solution (HBSS) or PBS, respectively. Invasive procedures were performed under Forene anesthesia. All experiments were performed in female Harlan HsdNpa: Athymic Nude-nu mice (Laboratory Animal Services, Novartis Pharma AG, Basel). The animals were kept under optimized hygienic conditions with 12 hr dark, 12 hr light conditions. The animals were fed food and water ad libitum. A single 75 mg/kg and 50 mg/kg dose of Hsp90 inhibitor, NVP-AUY922 was administered to the GTL-16 and A375 tumor-bearing mice, when tumors had reached a mean volume of 200 mm^3-500 mm^3 in size. Mice in the control group were injected with the vehicle (D5W). Serum was isolated and tumors dissected over the time course 0-168 hr. Tumors were cut in two halves. One half was paraffin embedded and the other snap frozen, and stored at −80° C.
Total protein lysates were prepared from the GTL-16 and A375 cells with RIPA lysis buffer (Upstate, Millipore Corporation, Charlottesville, Va., USA). […] Proteins were quantified by bicinchoninic acid assay (Pierce Biotechnology, Rockford, Ill., USA) for Western blotting. […]

[2] = system: A375 cells; assay: Multiplexed bead-based 27-plex cytokine panel, A375 culture supernatants; assay type: cell-based, human; details: 48 hr
Protocol: (§1) A malignant melanoma cell line A375 (American Type Culture Collection, Manassas, Va., USA) and gastric cancer cell line, GTL-16 (Prof Silvia Giordano, Institute for Cancer Research and Treatment, Turin, Italy) were cultured in RPMI 1640 supplemented with 10% FBS and 1% penicillin-streptomycin at 37° C. in 5% CO2 (GIBCO reagents, Invitrogen Corporation, Carlsbad, Calif., USA). Cell numbers were determined by ViCell™ XR Cell Viability Analyzer 2.03 (Beckman Coulter, Inc., Fullerton, Calif., USA). Cells were seeded in poly-D-lysine coated plates (BIOCOAT Cell Environments, Becton Dickinson Biosciences, San Jose, Calif., USA).
(§2) Human IL-8 levels in cell culture supernatants treated with NVP-AUY922 were initially assessed as part of a multiplexed bead-based cytokine panel (hu 27-plex panel I, Bio-rad Laboratories, Hercules, Calif., USA) with a BioPlex Suspension Array System (Bio-rad). Human IL-8 and mouse KC levels in serum derived from GTL-16 and A375 tumor-bearing mice treated with NVP-AUY922 were measured by single-plex cytokine bead-based assay (Milliplex, Millipore, Billerica, Mass., USA). The BioPlex system uses a liquid suspension array of beads. The beads align in a single file through a flow cell to the detector, where a red classification laser at a wavelength of 635 nm and a green reporter laser at a wavelength of 532 nm are used to identify each bead's spectral address and associated reporter signal, respectively.
(§3) In a screen for candidate secreted markers of Hsp90 inhibition, cell culture supernatants were collected from GTL-16 gastric carcinoma and A375 melanoma cells that were washed and treated for 48 hr with 1 μM NVP-AUY922 in fresh culture medium. These samples were analyzed by a multiplexed cytokine bead-based assay that included a panel of 27 human cytokines, the results of which are shown in FIG. 1. […] In addition to this empirical investigation using the bead-based immunoassay panel, in silica data mining was undertaken to identify secreted proteins that were regulated by previously reported Hsp90 client proteins; this investigation pointed to a number of candidates, including IL-8, consistent with the empirical results.

[3] = system: GTL-16 cells; assay: Multiplexed bead-based 27-plex cytokine panel, GTL-16 culture supernatants; assay type: cell-based, human; details: 48 hr
Protocol: as §1, §2, §3

CCNC(=O)c1noc(-c2cc(C(C)C)c(O)cc2O)c1-c1ccc(CN2CCOCC2)cc1 [NVP-AUY922, 5-(2,4-Dihydroxy-5-isopropyl-phenyl)-4-(4-morhpolin-4-ylmethyl-phenyl)-isoxazole-3-carboxylic acid ethylamide]
Hsp70 induction in tumor compared with GTL-16 model [1]: same pattern of Hsp70 induction
IL-2 levels ([2]; A375, 1 μM): increased
accumulation of IL-1ra, IL-8, MCP-1 (MCAF) and VEGF ([2]; A375, 1 μM): decreased accumulation
accumulation of other detectable cytokines ([2]; A375, 1 μM): remained unchanged
IL-8 accumulation decreased ([2]; A375 culture supernatant, 1 μM, multiplexed assay): > 70%
accumulation of FGF basic and MIP-1b ([3]; GTL-16, 1 μM): virtually unchanged
accumulation of IL-1ra, IL-8, IL-17, Eotaxin, GM-CSF, IP-10, PDGF-bb and VEGF ([3]; GTL-16, 1 μM): decreased accumulation
accumulation of IL-15 ([3]; GTL-16, 1 μM): increased accumulation
IL-8 accumulation decreased ([3]; GTL-16 culture supernatant, 1 μM, multiplexed assay): more than 80%
